In patent publication US20150024934A1, “CONTROLLING CHARCOAL ROT WITH FLUTRIAFOL” (CHEMINOVA A/S, priority 2013, published 2015):

Columns and labels:
charcoal rot = assay: Strawberry field trial for control of charcoal rot (infected plants, yield); type: in vivo; conditions: applied either surface incorporated or via buried drip
Macrophomina phaseolina = assay: Mycelial colony growth on flutriafol-amended PDA; type: cell-based; conditions: 1x; for Dia (mm) 1 day: untreated 28.2; for Dia (mm) 3 days / Dia (mm) 5 days / Dia (mm) 7 days: untreated 40
Protocol: Inhibition of Macrophomina phaseolina (charcoal rot) was tested in the following example: The flutriafol composition used in the example was TOPGUARD (125 g/L flutriafol SC), a commercially available product.
Each pathogen was grown out on fresh potato dextrose agar (commercial PDA), assessed and used to seed 2× autoclaved rice for inoculums development. At 7-10 days, two infested rice grains with the pathogen was placed at equal distances on flutriafol-amended PDA and incubated at 27-29° C. Mycelial colony diameter from each rice grain was measured at 1, 3, 5 and 7 days from grain placement. The included tables and data sets illustrate the differences in mycelia growth in response to various concentrations of the fungicide.

Compound: OC(Cn1cncn1)(c1ccc(F)cc1)c1ccccc1F (racemic) [flutriafol, (RS)-2,4′-difluoro-α-(1H-1,2,4-triazol-1-ylmethyl)benzhydryl alcohol]
- effect on charcoal rot (charcoal rot): significantly reduced charcoal rot
- Dia (mm) 1 day (Macrophomina phaseolina; 0.01 ppm): 25.5 mm
- Dia (mm) 3 days (Macrophomina phaseolina; 0.01 ppm): 40 mm
- Dia (mm) 5 days (Macrophomina phaseolina; 0.01 ppm): 40 mm
- Dia (mm) 7 days (Macrophomina phaseolina; 0.01 ppm): 40 mm
- Dia (mm) 1 day (Macrophomina phaseolina; 0.1 ppm): 22.3 mm
- Dia (mm) 3 days (Macrophomina phaseolina; 0.1 ppm): 40 mm
- Dia (mm) 5 days (Macrophomina phaseolina; 0.1 ppm): 40 mm
- Dia (mm) 7 days (Macrophomina phaseolina; 0.1 ppm): 40 mm
- Dia (mm) 1 day (Macrophomina phaseolina; 1 ppm): 13.9 mm
- Dia (mm) 3 days (Macrophomina phaseolina; 1 ppm): 38.6 mm
- Dia (mm) 5 days (Macrophomina phaseolina; 1 ppm): 40 mm
- Dia (mm) 7 days (Macrophomina phaseolina; 1 ppm): 40 mm
- Dia (mm) 1 day (Macrophomina phaseolina; 10 ppm): 0 mm
- Dia (mm) 3 days (Macrophomina phaseolina; 10 ppm): 3.5 mm
- Dia (mm) 5 days (Macrophomina phaseolina; 10 ppm): 3.5 mm
- Dia (mm) 7 days (Macrophomina phaseolina; 10 ppm): 5.1 mm
- Dia (mm) 1 day (Macrophomina phaseolina; 100 ppm): 0 mm
- Dia (mm) 3 days (Macrophomina phaseolina; 100 ppm): 0 mm
- Dia (mm) 5 days (Macrophomina phaseolina; 100 ppm): 0 mm
- Dia (mm) 7 days (Macrophomina phaseolina; 100 ppm): 0 mm
- Dia (mm) 1 day (Macrophomina phaseolina; 250 ppm, mycelial colony diameter, TOPGUARD 125 g/L SC in PDA): 0 mm
- Dia (mm) 3 days (Macrophomina phaseolina; 250 ppm): 0 mm
- Dia (mm) 5 days (Macrophomina phaseolina; 250 ppm): 0 mm
- Dia (mm) 7 days (Macrophomina phaseolina; 250 ppm): 0 mm
